Experimental data from US20260027068A1, “METHODS OF ADM[…]-KETAMINE” (Perception Neuroscience, Inc., priority 2022, published 2026).

Tested on: subjects with TRD
Assay: Adverse events (TEAEs, SAEs) in the TRD study
Format: in vivo, human
Conditions: 30 mg (n = 33)
From the text: The definitions of an AE and SAE can be found in Section F. AEs were reported by the subject (or, when appropriate, by a caregiver, surrogate, or the subject's legally authorized representative). The Investigator and any designees were responsible for detecting, documenting, and recording events that meet the definition of an AE or SAE and remained responsible for following up AEs that were serious, considered related to the study treatment or study procedures, or that caused the subject to discontinue from the study.
All AEs were collected from the signing of the ICF until the second follow-up visit (Day 15) at the time points specified in the Schedule of Activities (Section C). Medical occurrences that began before the start of study treatment but after obtaining informed consent were recorded on the Medical History/Current Medical Conditions section of the CRF, not the AE section. All SAEs were recorded and reported to the Sponsor or designee within 24 hours as indicated in Section F. The Investigator submitted any updated SAE data to the Sponsor or designee within 24 hours of it being available. Investigators were not obligated to actively seek AE or SAE information after the conclusion of study participation. However, if the Investigator learns of any SAE, including a death, at any time after a subject has been discharged from the study, and he/she considers the event to be reasonably related to the study treatment or study participation, the Investigator must promptly notify the Sponsor or designee. The method of recording, evaluating, and assessing the causality of AEs and SAEs and the procedures for completing and transmitting SAE reports are provided in Section F.
An AE is any untoward medical occurrence in a patient or subject, temporally associated with the use of study treatment, whether or not considered related to the study treatment. An AE can therefore be any unfavorable and unintended sign (including an abnormal laboratory finding), symptom, or disease (new or exacerbated) temporally associated with the use of study treatment.
If an event is not an AE per the definition above, then it cannot be an SAE even if serious conditions are met (e.g., hospitalization for signs/symptoms of the disease under study). A Serious Adverse Event (SAE) is defined as any untoward medical occurrence that, at any dose: a) results in death; b) is life-threatening; c) requires inpatient hospitalization or prolongation of existing hospitalization; d) results in persistent disability/incapacity; or e) is a congenital anomaly/birth defect. The term “life-threatening” in the definition of “serious” refers to an event in which the subject was at risk of death at the time of the event. […] In general, hospitalization signifies that the subject has been detained (usually involving at least an overnight stay) at the hospital or emergency ward for observation and/or treatment that would not have been appropriate in the physician's office or outpatient setting. Complications that occur during hospitalization are AEs. If a complication prolongs hospitalization or fulfills any other serious criteria, the event is serious. When in doubt as to whether “hospitalization” occurred or was necessary, the AE should be considered serious. […] The term disability means a substantial disruption of a person's ability to conduct normal life functions.
(MedDRA; Version 23.0 or higher). Treatment-emergent adverse events (TEAEs) are AEs with onset or worsening after the start of study treatment. The AE summaries will be primarily based on TEAEs. The number and percentage of subjects with TEAEs will be summarized by treatment group, system organ class, and preferred term for all TEAEs, treatment-related TEAEs, SAEs, serious TEAEs, severe TEAEs, TEAEs of special interest, and all TEAEs leading to study drug discontinuation. All TEAEs will be further summarized by maximum severity and causality. The TEAEs of special interest will be identified in the SAP. […]

CN[C@@]1(c2ccccc2Cl)CCCCC1=O [PCN 101]
Number of subjects with any treatment-emergent adverse events: 11
Number of treatment-emergent adverse events: 22
Subjects with any treatment-emergent adverse events: (%) of subjects: (33)
TEAE PT Alopecia: (%) of subjects: (0)
TEAE PT Alopecia: number of subjects: 0
TEAE PT Aversion: (%) of subjects: (0)
TEAE PT Aversion: number of subjects: 0
TEAE PT Balance disorder: (%) of subjects: (0)
TEAE PT Balance disorder: number of subjects: 0
TEAE PT Blood pressure increased: (%) of subjects: (0)
TEAE PT Blood pressure increased: number of subjects: 0
TEAE PT Bruxism: (%) of subjects: (0)
TEAE PT Bruxism: number of subjects: 0
TEAE PT Confusional state: (%) of subjects: (0)
TEAE PT Confusional state: number of subjects: 0
TEAE PT Defect conduction intraventricular: (%) of subjects: (0)
TEAE PT Defect conduction intraventricular: number of subjects: 0
TEAE PT Derealisation: (%) of subjects: (12)
TEAE PT Derealisation: number of subjects: 4
TEAE PT Diarrhoea: (%) of subjects: (0)
TEAE PT Diarrhoea: number of subjects: 0
TEAE PT Dissociation: (%) of subjects: (0)
TEAE PT Dissociation: number of subjects: 0
TEAE PT Dizziness: (%) of subjects: (6)
TEAE PT Dizziness: number of subjects: 2
TEAE PT Dry mouth: (%) of subjects: (0)
TEAE PT Dry mouth: number of subjects: 0
TEAE PT Dysarthria: (%) of subjects: (0)
TEAE PT Dysarthria: number of subjects: 0
TEAE PT Dyspnoea exertional: (%) of subjects: (3)
TEAE PT Dyspnoea exertional: number of subjects: 1
TEAE PT Energy increased: (%) of subjects: (0)
TEAE PT Energy increased: number of subjects: 0
TEAE PT Euphoric mood: (%) of subjects: (0)
TEAE PT Euphoric mood: number of subjects: 0
TEAE PT Fatigue: (%) of subjects: (0)
TEAE PT Fatigue: number of subjects: 0
TEAE PT Feeling abnormal: (%) of subjects: (0)
TEAE PT Feeling abnormal: number of subjects: 0
TEAE PT Feeling drunk: (%) of subjects: (0)
TEAE PT Feeling drunk: number of subjects: 0
TEAE PT Haematuria: (%) of subjects: (3)
TEAE PT Haematuria: number of subjects: 1
TEAE PT Headache: (%) of subjects: (9)
TEAE PT Headache: number of subjects: 3
TEAE PT Hyperacusis: (%) of subjects: (0)
TEAE PT Hyperacusis: number of subjects: 0
TEAE PT Hyperhidrosis: (%) of subjects: (3)
TEAE PT Hyperhidrosis: number of subjects: 1
TEAE PT Hyperphagia: (%) of subjects: (0)
TEAE PT Hyperphagia: number of subjects: 0
TEAE PT Hypoaesthesia oral: (%) of subjects: (0)
TEAE PT Hypoaesthesia oral: number of subjects: 0
TEAE PT Hypoaesthesia: (%) of subjects: (0)
TEAE PT Hypoaesthesia: number of subjects: 0
TEAE PT Increased appetite: (%) of subjects: (0)
TEAE PT Increased appetite: number of subjects: 0
TEAE PT Influenza like illness: (%) of subjects: (0)
TEAE PT Influenza like illness: number of subjects: 0
TEAE PT Infusion site hypoaesthesia: (%) of subjects: (0)
TEAE PT Infusion site hypoaesthesia: number of subjects: 0
TEAE PT Left ventricular hypertrophy: (%) of subjects: (0)
TEAE PT Left ventricular hypertrophy: number of subjects: 0
TEAE PT Lethargy: (%) of subjects: (0)
TEAE PT Lethargy: number of subjects: 0
TEAE PT Limb discomfort: (%) of subjects: (0)
TEAE PT Limb discomfort: number of subjects: 0
TEAE PT Logorrhoea: (%) of subjects: (0)
TEAE PT Logorrhoea: number of subjects: 0
TEAE PT Memory impairment: (%) of subjects: (0)
TEAE PT Memory impairment: number of subjects: 0
TEAE PT Muscle strain: (%) of subjects: (3)
TEAE PT Muscle strain: number of subjects: 1
TEAE PT Muscular weakness: (%) of subjects: (0)
TEAE PT Muscular weakness: number of subjects: 0
TEAE PT Nausea: (%) of subjects: (0)
TEAE PT Nausea: number of subjects: 0
TEAE PT Paraesthesia: (%) of subjects: (0)
TEAE PT Paraesthesia: number of subjects: 0
TEAE PT Rhinorrhoea: (%) of subjects: (0)
TEAE PT Rhinorrhoea: number of subjects: 0
TEAE PT Sedation: (%) of subjects: (0)
TEAE PT Sedation: number of subjects: 0
TEAE PT Sensory disturbance: (%) of subjects: (3)
TEAE PT Sensory disturbance: number of subjects: 1
TEAE PT Sinusitis: (%) of subjects: (0)
TEAE PT Sinusitis: number of subjects: 0
TEAE PT Skin abrasion: (%) of subjects: (0)
TEAE PT Skin abrasion: number of subjects: 0
TEAE PT Slow speech: (%) of subjects: (0)
TEAE PT Slow speech: number of subjects: 0
TEAE PT Smoke sensitivity: (%) of subjects: (0)
TEAE PT Smoke sensitivity: number of subjects: 0
TEAE PT Somnolence: (%) of subjects: (12)
TEAE PT Somnolence: number of subjects: 4
TEAE PT Tachycardia: (%) of subjects: (0)
TEAE PT Tachycardia: number of subjects: 0
TEAE PT Throat tightness: (%) of subjects: (0)
TEAE PT Throat tightness: number of subjects: 0
TEAE PT Time perception altered: (%) of subjects: (0)
TEAE PT Time perception altered: number of subjects: 0
TEAE PT Urinary tract infection: (%) of subjects: (3)
TEAE PT Urinary tract infection: number of subjects: 1
TEAE PT Venous injury: (%) of subjects: (0)
TEAE PT Venous injury: number of subjects: 0
TEAE PT Vertigo: (%) of subjects: (3)
TEAE PT Vertigo: number of subjects: 1
TEAE PT Vessel puncture site erythema: (%) of subjects: (3)
TEAE PT Vessel puncture site erythema: number of subjects: 1
TEAE PT Vision blurred: (%) of subjects: (0)
TEAE PT Vision blurred: number of subjects: 0
TEAE PT Visual impairment: (%) of subjects: (0)
TEAE PT Visual impairment: number of subjects: 0
TEAE SOC Cardiac disorders: (%) of subjects: (0)
TEAE SOC Cardiac disorders: number of subjects: 0
TEAE SOC Ear and labyrinth disorders: (%) of subjects: (3)
TEAE SOC Ear and labyrinth disorders: number of subjects: 1
TEAE SOC Eye disorders: (%) of subjects: (0)
TEAE SOC Eye disorders: number of subjects: 0
TEAE SOC Gastrointestinal disorders: (%) of subjects: (0)
TEAE SOC Gastrointestinal disorders: number of subjects: 0
TEAE SOC General disorders and administration site conditions: (%) of subjects: (3)
TEAE SOC General disorders and administration site conditions: number of subjects: 1
TEAE SOC Immune system disorders: (%) of subjects: (0)
TEAE SOC Immune system disorders: number of subjects: 0
TEAE SOC Infections and infestations: (%) of subjects: (3)
TEAE SOC Infections and infestations: number of subjects: 1
TEAE SOC Injury, poisoning and procedural complications: (%) of subjects: (3)
TEAE SOC Injury, poisoning and procedural complications: number of subjects: 1
TEAE SOC Investigations: (%) of subjects: (0)
TEAE SOC Investigations: number of subjects: 0
TEAE SOC Metabolism and nutrition disorders: (%) of subjects: (0)
TEAE SOC Metabolism and nutrition disorders: number of subjects: 0
TEAE SOC Musculoskeletal and connective tissue disorders: (%) of subjects: (0)
TEAE SOC Musculoskeletal and connective tissue disorders: number of subjects: 0
TEAE SOC Nervous system disorders: (%) of subjects: (27)
TEAE SOC Nervous system disorders: number of subjects: 9
TEAE SOC Psychiatric disorders: (%) of subjects: (12)
TEAE SOC Psychiatric disorders: number of subjects: 4
TEAE SOC Renal and urinary disorders: (%) of subjects: (3)
TEAE SOC Renal and urinary disorders: number of subjects: 1
TEAE SOC Respiratory, thoracic and mediastinal disorders: (%) of subjects: (3)
TEAE SOC Respiratory, thoracic and mediastinal disorders: number of subjects: 1
TEAE SOC Skin and subcutaneous tissue disorders: (%) of subjects: (3)
TEAE SOC Skin and subcutaneous tissue disorders: number of subjects: 1
